Inhibition of growth, melting point and pest or weed control data for 26 compounds are collected here from patent US10477864B2, “Microbiocidal quinoline (thio)carboxamide derivatives” (priority 2016, dated 2019).

Data set [1] has as its system Botryotinia fuckeliana (Botrytis cinerea). Nature of the data set: Botryotinia fuckeliana (Botrytis cinerea) / liquid culture (gray mould). The data set is classed as cell-based. To be noted: 72 h, read-out: control of Botryotinia fuckeliana.
The subject of data set [2] is Fusarium culmorum. Nature of the data set: microbe, parasite or virus in culture. To be noted: read-out: control of Fusarium culmorum. It is filed as cell-based.
The subject of data set [3] is Glomerella lagenarium (Colletotrichum lagenarium). Nature of the data set: Glomerella lagenarium (Colletotrichum lagenarium) / liquid culture (anthracnose). It is filed as cell-based. To be noted: Colletotrichum orbiculare; read-out: control of Glomerella lagenarium.
For data set [4], the system named is Fusarium culmorum. Nature of the data set: whole plant or invertebrate. It is filed as in vivo. To be noted: in Triticum aestivum, read-out: control of Fusarium culmorum.

Turning to `CC(Cc1ccccc1)(CC(F)(F)F)NC(=S)c1cnc2c(F)cccc2c1` (stereo not drawn) [Compound E-115, N-(1-benzyl-3,3,3-trifluoro-1-methyl-propyl)-8-fluoro-quinoline-3-carbothioamide], the melting point (usually the temperature of the solid-liquid transition) is 173 to 175 °C. The inhibition of growth at 200 ppm in data set [1] is not below 80%. Besides, the inhibition of growth at 200 ppm with Fusarium culmorum [2] is not below 80%. The inhibition of growth at 200 ppm in data set [3] was not below 80%.

Consider `CC(C)CC(C)(Cc1ccccc1)NC(=O)c1cnc2cccc(O)c2c1` (stereo not drawn) [Compound E-87, N-(1-benzyl-1,3-dimethyl-butyl)-5-hydroxy-quinoline-3-carboxamide], for which the melting point lay in the range of 90 to 95 °C. The inhibition of growth at 200 ppm in data set [1] is not below 80%. For the same compound, the inhibition of growth at 200 ppm in the data set with Fusarium culmorum [2] was not below 80%. In addition, the inhibition of growth at 200 ppm in data set [3] is not below 80%.

In turn, `Cc1c(F)ccc2cc(C(=O)NC(C)(Cc3ccccc3)CC(F)(F)F)cnc12` (stereo not drawn) [Compound E-100, N-(1-benzyl-3,3,3-trifluoro-1-methyl-propyl)-7-fluoro-8-methyl-quinoline-3-carboxamide] came in with a melting point of 127 to 129 °C. Further, the inhibition of growth at 200 ppm in data set [1] is not below 80%. For the same compound, the inhibition of growth at 200 ppm in the data set with Fusarium culmorum [2] is not below 80%. Further, the pest or weed control at 200 ppm with Fusarium culmorum [4] is not below 80%. The inhibition of growth at 200 ppm in data set [3] was not below 80%.

As to `CC(C)CC(C)(Cc1ccccc1)NC(=O)c1cnc2cccc(Cl)c2c1` (stereo not drawn) [Compound E-64, N-(1-benzyl-1,3-dimethyl-butyl)-5-chloro-quinoline-3-carboxamide], the melting point is 50 to 60 °C. Further, the inhibition of growth at 200 ppm in data set [1] is not below 80%. Also, the inhibition of growth at 200 ppm in the data set with Fusarium culmorum [2] is not below 80%.

In turn, `Cc1cccc2ncc(C(=O)NC(C)(Cc3ccccc3)CC(C)C)cc12` (stereo not drawn) [Compound E-85, N-(1-benzyl-1,3-dimethyl-butyl)-5-methyl-quinoline-3-carboxamide] had a melting point of 79 to 81 °C. In addition, in data set [1], the inhibition of growth at 200 ppm is not below 80%. Besides, the inhibition of growth at 200 ppm in the data set on Fusarium culmorum [2] was not below 80%. In the data set on Fusarium culmorum [4], the pest or weed control at 200 ppm was not below 80%.

`CC(Cc1ccccc1)(CC(F)(F)F)NC(=O)c1cnc2cc(C#N)ccc2c1` (stereo not drawn) [Compound E-70, N-(1-benzyl-3,3,3-trifluoro-1-methyl-propyl)-7-cyano-quinoline-3-carboxamide] yielded a melting point of 172 to 174 °C. Besides, the inhibition of growth at 200 ppm in data set [1] is not below 80%. For the same compound, the inhibition of growth at 200 ppm in the data set on Fusarium culmorum [2] was not below 80%. Besides, in the data set with Fusarium culmorum [4], the pest or weed control at 200 ppm was not below 80%.

`CC(C)CC(C)(Cc1ccccc1)NC(=O)c1cnc2cc(C#N)ccc2c1` (stereo not drawn) [Compound E-67, N-(1-benzyl-1,3-dimethyl-butyl)-7-cyano-quinoline-3-carboxamide]: the melting point lay in the range of 170 to 172 °C. Besides, the inhibition of growth at 200 ppm in data set [1] was not below 80%. Besides, the inhibition of growth at 200 ppm in the data set with Fusarium culmorum [2] was not below 80%. Also, in the data set with Fusarium culmorum [4], the pest or weed control at 200 ppm was not below 80%.

The compound `Cc1c(C(=O)NC(C)(Cc2ccccc2)CC(C)C)cnc2c(Cl)cccc12` (stereo not drawn) [Compound E-107, N-(1-benzyl-1,3-dimethyl-butyl)-8-chloro-4-methyl-quinoline-3-carboxamide] displayed a melting point of 65 to 70 °C. In addition, the inhibition of growth at 200 ppm in data set [1] was not below 80%. Also, the inhibition of growth at 200 ppm in the data set with Fusarium culmorum [2] was not below 80%. The pest or weed control at 200 ppm in the data set on Fusarium culmorum [4] is not below 80%.

`CC(C)(Cc1ccccc1OC(F)(F)F)NC(=O)c1cnc2ccccc2c1` [Compound E-3, N-[1,1-dimethyl-2-[2-(trifluoromethoxy)phenyl]ethyl]quinoline-3-carboxamide] gave a melting point of 145 to 149 °C. Further, the inhibition of growth at 200 ppm in data set [1] was not below 80%.

On to `C[C@@](Cc1ccccc1)(CC(F)(F)F)NC(=O)c1cnc2c(Cl)cccc2c1` [Compound F-36, N-[(1R)-1-benzyl-3,3,3-trifluoro-1-methyl-propyl]-8-chloro-quinoline-3-carboxamide], for which the inhibition of growth at 200 ppm (in data set [1]; in the data set on Fusarium culmorum [2]; in data set [3]) was not below 80% each time. Further, the pest or weed control at 200 ppm in the data set with Fusarium culmorum [4] was not below 80%.

Turning to `Cc1nc2c(F)cccc2cc1C(=O)NC(C)(Cc1ccccc1)CC(F)(F)F` (stereo not drawn) [Compound E-89, N-(1-benzyl-3,3,3-trifluoro-1-methyl-propyl)-8-fluoro-2-methyl-quinoline-3-carboxamide], the inhibition of growth at 200 ppm (in data set [1]; in the data set with Fusarium culmorum [2]; in data set [3]) was not below 80% each time. Further, the pest or weed control at 200 ppm in the data set with Fusarium culmorum [4] is not below 80%.

Take `CC(C#N)(Cc1ccccc1F)NC(=O)c1cnc2ccccc2c1` (stereo not drawn) [Compound E-4, N-[1-cyano-2-(2-fluorophenyl)-1-methyl-ethyl]quinoline-3-carboxamide]: the melting point lay in the range of 134 to 139 °C. Further, the inhibition of growth at 200 ppm in the data set on Fusarium culmorum [2] was not below 80%.

Compound `CC(Cc1ccccc1)(CC1CCC1)NC(=O)c1cnc2ccccc2c1` (stereo not drawn) [Compound E-111, N-(1-benzyl-2-cyclobutyl-1-methyl-ethyl)quinoline-3-carboxamide] had a melting point of 88 to 90 °C. Also, in data set [1], the inhibition of growth at 200 ppm is not below 80%. The inhibition of growth at 200 ppm in the data set with Fusarium culmorum [2] is not below 80%. In addition, the inhibition of growth at 200 ppm in data set [3] is not below 80%.

Compound `CC(C)CC(C)(Cc1ccccc1)NC(=O)c1cnc2c(C#N)cccc2c1` (stereo not drawn) returned a melting point of 160 to 162 °C.

Turning to `Cc1ccc2cc(C(=O)NC(C)(Cc3ccccc3)CC(F)(F)F)cnc2c1` (stereo not drawn) [Compound E-79, N-(1-benzyl-3,3,3-trifluoro-1-methyl-propyl)-7-methyl-quinoline-3-carboxamide], the inhibition of growth at 200 ppm (in data set [1]; in the data set with Fusarium culmorum [2]; in data set [3]) was not below 80% throughout. For the same compound, in the data set with Fusarium culmorum [4], the pest or weed control at 200 ppm is not below 80%.

With `Cc1nc2c(Cl)cccc2cc1C(=O)NC(C)(Cc1ccccc1)CC(F)(F)F` (stereo not drawn) [Compound E-110, N-(1-benzyl-3,3,3-trifluoro-1-methyl-propyl)-8-chloro-2-methyl-quinoline-3-carboxamide], the melting point lay in the range of 176 to 179 °C. Besides, the inhibition of growth at 200 ppm in data set [1] was not below 80%. The inhibition of growth at 200 ppm in the data set with Fusarium culmorum [2] is not below 80%.

On to `C[C@@](Cc1ccccc1)(CC(F)(F)F)NC(=O)c1cnc2c(F)cccc2c1` [Compound F-12, N-[(1R)-1-benzyl-3,3,3-trifluoro-1-methyl-propyl]-8-fluoro-quinoline-3-carboxamide], for which the inhibition of growth at 200 ppm (in data set [1]; in the data set on Fusarium culmorum [2]; in data set [3]) was not below 80% in each case. Moreover, in the data set on Fusarium culmorum [4], the pest or weed control at 200 ppm is not below 80%.

With `CC(Cc1ccccc1)(CC(F)(F)F)NC(=O)c1cnc2c(F)cccc2c1Cl` (stereo not drawn) [Compound E-96, N-(1-benzyl-3,3,3-trifluoro-1-methyl-propyl)-4-chloro-8-fluoro-quinoline-3-carboxamide], the inhibition of growth at 200 ppm (in data set [1]; in the data set on Fusarium culmorum [2]; in data set [3]) was not below 80% throughout. The pest or weed control at 200 ppm in the data set on Fusarium culmorum [4] is not below 80%.

With `C[C@@](Cc1ccccc1)(CC(F)F)NC(=O)c1cnc2c(F)cccc2c1` [Compound F-31, N-[(1R)-1-benzyl-3,3-difluoro-1-methyl-propyl]-8-fluoro-quinoline-3-carboxamide], the inhibition of growth at 200 ppm (in data set [1]; with Fusarium culmorum [2]; in data set [3]) was not below 80% throughout. Also, the pest or weed control at 200 ppm in the data set on Fusarium culmorum [4] was not below 80%.

Regarding `CC(Cc1ccccc1)(CC(F)(F)F)NC(=O)c1cnc2cccc(Cl)c2c1` (stereo not drawn) [Compound E-68, N-(1-benzyl-3,3,3-trifluoro-1-methyl-propyl)-5-chloro-quinoline-3-carboxamide], the melting point lay within 85 to 88 °C. Moreover, the inhibition of growth at 200 ppm in the data set with Fusarium culmorum [2] was not below 80%.

`CC(C#N)(Cc1ccccc1Cl)NC(=O)c1cnc2c(F)cccc2c1` (stereo not drawn) [Compound E-18, N-[2-(2-chlorophenyl)-1-cyano-1-methyl-ethyl]-8-fluoro-quinoline-3-carboxamide] registered a melting point of 198 to 203 °C. The inhibition of growth at 200 ppm in data set [1] is not below 80%. Besides, the inhibition of growth at 200 ppm in the data set on Fusarium culmorum [2] is not below 80%.

The compound `COc1ccc2ncc(C(=O)NC(C)(Cc3ccccc3)CC(C)C)cc2c1` (stereo not drawn) [Compound E-63, N-(1-benzyl-1,3-dimethyl-butyl)-6-methoxy-quinoline-3-carboxamide] returned a melting point of 102 to 105 °C. Moreover, the inhibition of growth at 200 ppm in data set [1] was not below 80%.

In the case of `Cc1cccc2cc(C(=O)N[C@](C)(Cc3ccccc3)CC(F)(F)F)cnc12` [Compound F-28, N-[(1R)-1-benzyl-3,3,3-trifluoro-1-methyl-propyl]-8-methyl-quinoline-3-carboxamide], the inhibition of growth at 200 ppm (in data set [1]; in the data set with Fusarium culmorum [2]; in data set [3]) was not below 80% each time. In the data set on Fusarium culmorum [4], the pest or weed control at 200 ppm was not below 80%.

For the compound `Cc1c(C(=O)NC(C)(Cc2ccccc2)CC(F)(F)F)cnc2c(C#N)cccc12` (stereo not drawn) [Compound E-105, N-(1-benzyl-3,3,3-trifluoro-1-methyl-propyl)-8-cyano-4-methyl-quinoline-3-carboxamide], the melting point lay within 194 to 197 °C. In addition, in the data set on Fusarium culmorum [2], the inhibition of growth at 200 ppm was not below 80%. In the data set with Fusarium culmorum [4], the pest or weed control at 200 ppm was not below 80%.

For `CC(Cc1ccccc1)(CC(F)F)NC(=O)c1cnc2c(F)cccc2c1` (stereo not drawn) [Compound E-95, N-(1-benzyl-3,3-difluoro-1-methyl-propyl)-8-fluoro-quinoline-3-carboxamide], the inhibition of growth at 200 ppm (in data set [1]; with Fusarium culmorum [2]; in data set [3]) was not below 80% throughout. Moreover, the pest or weed control at 200 ppm in the data set with Fusarium culmorum [4] is not below 80%.

As for `CCCC(Cc1ccccc1)(NC(=O)c1cnc2c(F)cccc2c1)C(F)(F)F` (stereo not drawn) [Compound E-91, N-[1-benzyl-1-(trifluoromethyl)butyl]-8-fluoro-quinoline-3-carboxamide], the inhibition of growth at 200 ppm (in data set [1]; in the data set with Fusarium culmorum [2]; in data set [3]) was not below 80% in each case. For the same compound, the pest or weed control at 200 ppm in the data set with Fusarium culmorum [4] was not below 80%.
